Experimental data from the supplement of paper PMC10307832.

What was measured:
Test in all cases: relative viability (nuclei count vs DMSO), 5 days (fraction); higher = more cells survive
Sulindac + Pemetrexed = compound: CC1=C(CC(=O)O)c2cc(F)ccc2/C1=C\c1ccc([S+](C)[O-])cc1 [Sulindac] + Nc1nc2[nH]cc(CCc3ccc(C(=O)N[C@@H](CCC(=O)O)C(=O)O)cc3)c2c(=O)[nH]1 [Pemetrexed] (partner 0.2 µM)
Summary of the method: (§1)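 The day after seeding in 1536-well plates, lung cancer cell lines were treated by pin tool with a single drug, or with a fixed anchor-drug dose together with five library-drug doses (not always all listed) in √10 steps. After 5 days, a combined fix-and-stain solution (final 0.05% Triton X-100, 1% formaldehyde, 1 ug/ml Hoechst) was added. Nuclei counted on 4× images gave relative viability as treated counts over vehicle counts, reported as the median of duplicate plates.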

Sulindac + Decitabine = compound: CC1=C(CC(=O)O)c2cc(F)ccc2/C1=C\c1ccc([S+](C)[O-])cc1 [Sulindac] + Nc1ncn([C@H]2C[C@H](O)[C@@H](CO)O2)c(=O)n1 [Decitabine] (partner 2 µM)
Summary of the method: as §1

Sulindac + AZD7762 = compound: CC1=C(CC(=O)O)c2cc(F)ccc2/C1=C\c1ccc([S+](C)[O-])cc1 [Sulindac] + NC(=O)Nc1cc(-c2cccc(F)c2)sc1C(=O)N[C@H]1CCCNC1 [AZD7762] (partner 0.2 µM)
Summary of the method: as §1

[1] = compound: O=c1[nH]cc(F)c(=O)[nH]1 [5-Fluorouracil] + CC(=O)Nc1cccc(-n2c(=O)n(C3CC3)c(=O)c3c(Nc4ccc(I)cc4F)n(C)c(=O)c(C)c32)c1 [Trametinib] (partner 0.02 µM)
Summary of the method: as §1

Cell Line | relative viability (Sulindac + Pemetrexed; first compound 0.08 µM) | relative viability (Sulindac + Pemetrexed; first compound 0.253 µM) | relative viability (Sulindac + Pemetrexed; first compound 2.53 µM) | relative viability (Sulindac + Pemetrexed; first compound 8 µM) | relative viability (Sulindac + Decitabine; first compound 0.08 µM) | relative viability (Sulindac + Decitabine; first compound 0.253 µM) | relative viability (Sulindac + Decitabine; first compound 2.53 µM) | relative viability (Sulindac + Decitabine; first compound 8 µM) | relative viability (Sulindac + AZD7762; first compound 0.08 µM) | relative viability (Sulindac + AZD7762; first compound 0.253 µM) | relative viability (Sulindac + AZD7762; first compound 2.53 µM) | relative viability (Sulindac + AZD7762; first compound 8 µM) | relative viability ([1]; first compound 0.02 µM) | relative viability ([1]; first compound 0.2 µM) | relative viability ([1]; first compound 0.6325 µM) | relative viability ([1]; first compound 2 µM) | relative viability (Sulindac + Pemetrexed; first compound 0.8 µM) | relative viability (Sulindac + Decitabine; first compound 0.8 µM) | relative viability (Sulindac + AZD7762; first compound 0.8 µM)
NCI-H1792 | 0.867 | 0.903 | 0.794 | 0.827 | 0.476 | 0.632 | 0.581 | 0.417 | 0.98 | 0.647 | 0.766 | 0.703 | 0.367 | 0.278 | 0.172 | 0.167 |  |  | 
NCI-H1793 | 0.957 | 0.824 | 1.13 | 1.14 | 0.406 | 0.521 | 0.486 | 0.588 | 0.41 | 0.537 | 0.441 | 0.33 | 0.398 | 0.49 | 0.373 | 0.38 |  |  | 
NCI-H1915 | 0.602 | 0.53 | 0.475 | 0.53 | 0.229 | 0.268 | 0.261 | 0.27 | 0.703 | 0.734 | 0.664 | 0.761 | 0.28 | 0.325 | 0.253 | 0.283 | 0.492 | 0.266 | 0.645
NCI-H1944 | 0.701 | 0.636 | 0.582 | 0.722 | 0.489 | 0.44 | 0.426 | 0.449 | 0.519 | 0.382 | 0.512 | 0.551 | 0.412 | 0.333 | 0.244 | 0.195 | 0.412 | 0.412 | 0.526
NCI-H1975 | 0.316 | 0.297 | 0.304 | 0.313 | 0.594 | 0.413 | 0.394 | 0.36 | 0.868 | 0.715 | 0.695 | 0.819 | 0.307 | 0.548 | 0.313 | 0.238 | 0.245 | 0.352 | 0.699
NCI-H1993 | 0.704 | 0.575 | 0.638 | 0.551 | 0.558 | 0.298 | 0.61 | 0.627 | 0.717 | 0.854 | 0.695 | 0.854 | 0.379 | 0.524 | 0.486 | 0.487 | 0.648 | 0.454 | 0.606
NCI-H2085 | 0.921 | 0.903 | 0.898 | 0.897 | 0.497 | 0.556 | 0.525 | 0.5 | 0.904 | 0.988 | 0.945 | 0.95 | 0.412 | 0.607 | 0.563 | 0.563 | 0.766 | 0.545 | 0.834
NCI-H2087 | 0.748 | 0.666 | 0.658 | 0.685 | 0.186 | 0.324 | 0.246 | 0.323 | 1.73 | 1.52 | 1.48 | 1.4 | 0.216 | 0.157 | 0.167 | 0.216 | 0.741 | 0.254 | 0.983
NCI-H2126 | 0.774 | 0.68 | 0.692 | 0.699 | 0.623 | 0.627 | 0.553 | 0.549 | 1.12 | 1.03 | 1.01 | 1.09 | 0.579 | 0.305 | 0.27 | 0.257 | 0.658 | 0.543 | 0.889
NCI-H2170 | 0.282 | 0.252 | 0.267 | 0.278 | 0.521 | 0.461 | 0.434 | 0.455 | 1.06 | 0.91 | 1.01 | 0.884 | 0.976 | 0.78 | 0.478 | 0.312 | 0.371 | 0.436 | 0.765
NCI-H2342 | 0.742 | 0.714 | 0.746 | 0.781 | 0.681 | 0.706 | 0.648 | 0.786 | 0.76 | 0.495 | 0.491 | 0.5 | 0.932 | 0.762 | 0.843 | 0.662 | 0.739 | 0.591 | 0.441
NCI-H2347 | 0.429 | 0.394 | 0.461 | 0.414 | 0.609 | 0.632 | 0.652 | 0.636 | 0.711 | 0.778 | 0.737 | 0.817 | 0.281 | 0.256 | 0.293 | 0.166 |  | 0.548 | 0.653
NCI-H2405 | 1.14 | 1.17 | 0.926 | 1.15 | 0.803 | 0.723 | 0.749 | 0.823 | 0.86 | 0.811 | 0.691 | 0.995 | 0.629 | 0.692 | 0.579 | 0.6 | 0.971 | 0.713 | 0.642
NCI-H3122 | 0.203 | 0.194 | 0.176 | 0.214 | 0.409 | 0.385 | 0.435 | 0.439 | 1.2 | 1.08 | 0.968 | 0.947 | 0.232 | 0.296 | 0.187 | 0.176 | 0.207 | 0.352 | 1.01
PC-3 [JPC-3] | 1.07 | 1.04 | 1.07 | 1.19 | 0.777 | 0.791 | 0.77 | 0.855 | 0.855 | 0.805 | 0.715 | 1.06 | 0.784 | 0.823 | 0.782 | 0.661 | 0.738 | 0.838 | 0.697
PC-14 | 0.122 | 0.118 | 0.13 | 0.147 | 0.25 | 0.274 | 0.215 | 0.257 | 0.377 | 0.315 | 0.284 | 0.364 | 0.837 | 0.734 | 0.81 | 0.456 | 0.162 | 0.223 | 0.35
RERF-LC-KJ | 0.458 | 0.486 | 0.447 | 0.519 | 0.667 | 0.706 | 0.63 | 0.751 | 1.41 | 1.18 | 0.993 | 1.05 | 0.949 | 0.811 | 0.838 | 0.7 | 0.506 | 0.608 | 0.632
